Test system: Aβ42 production
Assay: Quantification of Aβ peptide in culture of neurons from rat fetus brain (Aβ ELISA)
Type: cell-based
Settings: Neuron, 72 h; rat primary neuronal culture (cerebral cortex, embryonic day 18 Wistar rats); medium collected three days after addition of the compound; Aβx-42 ELISA; read-out: Aβ42 production reducing effect IC50
Protocol: Quantification of Aβ Peptide in Culture of Neurons from Rat Fetus Brain
(1) Rat Primary Neuronal Culture
Primary neuronal cultures were prepared from the cerebral cortex of embryonic day 18 Wistar rats (Charles River Japan, Yokohama, Japan). Specifically, the embryos were aseptically removed from pregnant rats under ether anesthesia. The brain was isolated from the embryo and immersed in an ice-cold L-15 medium (such as Invitrogen Corp. Cat #11415-064, Carlsbad, Calif., USA, or SIGMA L1518). The cerebral cortex was collected from the isolated brain under a stereoscopic microscope. The cerebral cortex fragments collected were enzymatically treated in an enzyme solution containing 0.25% trypsin (Invitrogen Corp. Cat #15050-065, Carlsbad, Calif., USA) and 0.01% DNase (Sigma D5025, St. Louis, Mo., USA) at 37° C. for 30 minutes to disperse the cells. Here, the enzymatic reaction was stopped by adding inactivated horse serum to the solution. The enzymatically treated solution was centrifuged at 1,500 rpm for five minutes to remove the supernatant. 5 to 10 mL of a medium was added to the resulting cell mass. Neurobasal medium (Invitrogen Corp. Cat #21103-049, Carlsbad, Calif., USA) supplemented with 2% B27 supplement (Invitrogen Corp. Cat #17504-044, Carlsbad, Calif., USA), 25 μM 2-mercaptoethanol (2-ME, WAKO Cat #139-06861, Osaka, Japan), 0.5 mM L-glutamine (Invitrogen Corp. Cat #25030-081, Carlsbad, Calif., USA), and Antibiotics-Antimycotics (Invitrogen Corp. Cat #15240-062, Carlsbad, Calif., USA) was used as the medium (Neurobasal/B27/2-ME). However, the above Neurobasal medium not supplemented with 2-ME (Neurobasal/B27) was used for the assay. The cells were redispersed by mild pipetting of the cell mass to which the medium was added. The cell dispersion was filtered through a 40-μm nylon mesh (Cell Strainer, Cat #35-2340, Becton Dickinson Labware, Franklin Lakes, N.J., USA) to remove the remaining cell mass, and thus a neuronal cell suspension was obtained. The neuronal cell suspension was diluted with the medium and then plated in a volume of 100 μL/well at an initial cell density of 5×10^5 cells/cm^2 in a 96-well polystyrene culture plate pre-coated with poly-L or D-lysine (Falcon Cat #35-3075, Becton Dickinson Labware, Franklin Lakes, N.J., USA coated with poly-L-lysine using the method shown below, or BIOCOAT™ cell environments Poly-D-lysine cell ware 96-well plate, Cat #35-6461, Becton Dickinson Labware, Franklin Lakes, N.J., USA). Poly-L-lysine coating was carried out as follows. 100 μg/mL of a poly-L-lysine (SIGMA P2636, St. Louis, Mo., USA) solution was aseptically prepared with a 0.15 M borate buffer (pH 8.5). […] of the solution was added to the 96-well polystyrene culture plate and incubated at room temperature for one or more hours or at 4° C. overnight or longer. Thereafter, the coated 96-well polystyrene culture plate was washed with sterile water four or more times, and then dried or rinsed with, for example, sterile PBS or medium, and used for cell plating. The plated cells were cultured in the culture plate at 37° C. in 5% CO2-95% air for one day. Then, the total amount of the medium was replaced with a fresh Neurobasal™/B27/2-ME medium, and then the cells were cultured for further three days.
The drug was added to the culture plate on Day 4 of culture as follows. The total amount of the medium was removed from the wells, and 180 μL/well of Neurobasal medium not containing 2-ME and containing 2% B-27 (Neurobasal/B27) was added thereto. A solution of the test compound in dimethyl sulfoxide (hereinafter abbreviated as DMSO) was diluted with Neurobasal/B27 to a concentration 10-fold higher than the final concentration. 20 μL/well of the dilution was added to and sufficiently mixed with the medium. The final DMSO concentration was 1% or less. Only DMSO was added to the control group.
The cells were cultured for three days after addition of the compound, and the total amount of the medium was collected. […]

SMILES | IC50
COc1ccc(NC(=O)c2ccc(Cl)cn2)cc1[C@]12CCC[C@H]1CSC(N)=N2 (racemic) [Example 34, (±)-N-[3-((4aR*,7aS*)-2-amino-4a,5,6,7-tetrahydro-4H-cyclopenta[d][1,3]thiazin-7a-yl)-4-methoxyphenyl]-5-chloropyridine-2-carboxamide] | 115 nM
NC1=N[C@@]2(c3cccc(-c4cccnc4F)c3)CN(c3ccccc3)C[C@H]2CS1 (racemic) [Example 36, (±)-(4aR,7aS)-7a-[3-(2-fluoro-pyridin-3-yl)phenyl]-6-phenyl-4,4a,5,6,7,7a-hexahydropyrrolo[3,4-d][1,3]thiazin-2-ylamine] | 384 nM
NC1=N[C@@]2(c3cccc(-c4cccnc4F)c3)CN(c3ncccn3)C[C@H]2CS1 (racemic) [Example 37, (±)-(4aR*,7aS*)-7a-[3-(2-fluoropyridin-3-yl)phenyl]-6-pyrimidin-2-yl-4,4a,5,6,7,7a-hexahydropyrrolo[3,4-d][1,3]thiazin-2-ylamine] | 29 nM
NC1=N[C@@]2(c3cc(NC(=O)c4ccc(Cl)cn4)ccc3OC(F)(F)F)CCOC[C@H]2CS1 (racemic) [Example 149] | 414 nM
N#Cc1ccc(C(=O)Nc2cc(F)cc([C@]34CCC[C@H]3CSC(N)=N4)c2)nc1 (racemic) [Example 158, (±)-N-[3-((4aR*,7aS*)-2-amino-4a,5,6,7-tetrahydro-4H-cyclopenta[d][1,3]thiazin-7a-yl)-5-fluorophenyl]-5-cyanopyridine-2-carboxamide] | 53 nM
NC1=N[C@@]2(c3cc(-c4cccnc4F)ccc3F)CCC[C@H]2CS1 (racemic) [Example 160, (±)-(4aR*,7aS*)-7a-[2-fluoro-5-(2-fluoropyridin-3-yl)phenyl]-4,4a,5,6,7,7a-hexahydrocyclopenta[d][1,3]thiazin-2-ylamine] | 521 nM
NC1=N[C@@]2(c3cccc(-c4cccnc4F)c3)CN(c3ccc(F)cc3)C[C@H]2CS1 (racemic) [Example 226, (±)-(4aR*,7aS*)-6-(4-fluorophenyl)-7a-[3-(2-fluoropyridin-3-yl)phenyl]-4,4a,5,6,7,7a-hexahydropyrrolo[3,4-d][1,3]thiazin-2-ylamine] | 233 nM
N#Cc1cccc(-c2cccc([C@]34CN(c5cnccn5)C[C@H]3CSC(N)=N4)c2)c1 (racemic) [Example 229, (±)-3′44aR*,7aS*)-2-amino-6-pyrazin-2-yl-4a,5,6,7-tetrahydro-4H-pyrrolo[3,4-d][1,3]thiazin-7a-yl)biphenyl-3-carbonitrile] | 544 nM
N#Cc1ccc(C(=O)Nc2cc(Cl)cc([C@]34CCC[C@H]3CSC(N)=N4)c2)nc1 (racemic) [Example 240, (±)-N-[3-((4aR*,7aS*)-2-amino-4a,5,6,7-tetrahydro-4H-cyclopenta[d][1,3]thiazin-7a-yl)-5-chlorophenyl]-5-cyanopyridine-2-carboxamide] | 39 nM
NC1=N[C@@]2(c3cc(-c4cccnc4F)c(F)cc3F)CCCC[C@H]2CS1 (racemic) [Example 245, (±)-(4aR*,8aS*)-8a-[2,4-difluoro-5-(2-fluoropyridin-3-yl)phenyl]-4a,5,6,7,8,8a-hexahydro-4H-benzo[d][1,3]thiazin-2-ylamine] | 1160 nM
NC1=N[C@@]2(c3cc(NC(=O)c4ccc(Cl)cn4)ccc3F)CCC[C@H]2CS1 (relative stereo) [Example 5, (+)-N-[3-((4aR*,7aS*)-2-amino-4a,5,6,7-tetrahydro-4H-cyclopenta[d][1,3]thiazin-7a-yl)-4-fluorophenyl]-5-chloropyridine-2-carboxamide] | 3 nM
NC1=N[C@@]2(c3cc(NC(=O)c4ccccn4)ccc3F)CCC[C@H]2CS1 (relative stereo) [Example 6, N-[3-((4aR*,7aS*)-2-amino-4a,5,6,7-tetrahydro-4H-cyclopenta[d][1,3]thiazin-7a-yl)-4-fluorophenyl]pyridine-2-carboxamide] | 88 nM
NC1=N[C@@]2(c3cc(NC(=O)c4ccc(F)cn4)ccc3F)CCC[C@H]2CS1 (relative stereo) [Example 9, N-[3-((4aR*,7aS*)-2-amino-4a,5,6,7-tetrahydro-4H-cyclopenta[d][1,3]thiazin-7a-yl)-4-fluorophenyl]-5-fluoropyridine-2-carboxamide] | 28 nM
N#Cc1ccc(C(=O)Nc2ccc(F)c([C@]34CCCC[C@H]3CSC(N)=N4)c2)nc1 (relative stereo) [Example 19, N-[3-((4aR*,8aS*)-2-amino-4,4a,5,6,7,8-hexahydrobenzo[d][1,3]thiazin-8a-yl)-4-fluorophenyl]-5-cyanopyridine-2-carboxamide] | 45 nM
NC1=N[C@@]2(c3cc(NC(=O)c4cnc(OCF)cn4)ccc3F)CCC[C@H]2CS1 (relative stereo) [Example 21, N-[3-((4aR*,7aS*)-2-amino-4a,5,6,7-tetrahydro-4H-cyclopenta[d][1,3]thiazin-7a-yl)-4-fluorophenyl]-5-fluoromethoxypyrazine-2-carboxamide] | 13 nM
NC1=N[C@@]2(c3cc(NC(=O)c4ccc(OCF)cn4)ccc3F)CCC[C@H]2CS1 (relative stereo) [Example 23, N-[3-((4aR*,7aS*)-2-amino-4a,5,6,7-tetrahydro-4H-cyclopenta[d][1,3]thiazin-7a-yl)-4-fluorophenyl]-5-fluoromethoxypyridine-2-carboxamide] | 10 nM
N#Cc1ccc(C(=O)Nc2ccc(F)c([C@]34COC[C@H]3CSC(N)=N4)c2)nc1 (relative stereo) [Example 24, N-[3-((4aS*,7aS*)-2-amino-4a,5-dihydro-4H-furo[3,4-d][1,3]thiazin-7a-yl)-4-fluorophenyl]-5-cyanopyridine-2-carboxamide] | 4.3 nM
NC1=N[C@@]2(c3cc(NC(=O)c4cnc(OC(F)F)cn4)ccc3F)COC[C@H]2CS1 (relative stereo) [Example 25, N-[3-((4aS*,7aS*)-2-amino-4a,5-dihydro-4H-furo[3,4-d][1,3]thiazin-7a-yl)-4-fluorophenyl]-5-difluoromethoxypyrazine-2-carboxamide] | 6.1 nM
NC1=N[C@@]2(c3cc(NC(=O)c4ccc(Cl)cn4)ccc3F)COC[C@H]2CS1 (relative stereo) [Example 26, N-[3-((4aS*,7aS*)-2-amino-4a,5-dihydro-4H-furo[3,4-d][1,3]thiazin-7a-yl)-4-fluorophenyl]-5-chloropyridine-2-carboxamide] | 6.9 nM
NC1=N[C@@]2(c3cc(NC(=O)c4cnc(OC(F)F)cn4)ccc3F)CCOC[C@H]2CS1 (relative stereo) [Example 29, N-[3-((4aS*,8aS*)-2-amino-4a,5,7,8-tetrahydro-4H-6-oxa-3-thia-1-azanaphthalen-8a-yl)-4-fluorophenyl]-5-difluoromethoxypyrazine-2-carboxamide] | 4 nM
NC1=N[C@@]2(c3cc(NC(=O)c4ccc(Cl)cn4)ccc3F)CCOC[C@H]2CS1 (relative stereo) [Example 30, N-[3-((4aS*,8aS*)-2-amino-4a,5,7,8-tetrahydro-4H-6-oxa-3-thia-1-azanaphthalen-8a-yl)-4-fluorophenyl]-5-chloropyridine-2-carboxamide] | 11 nM
CO[C@H]1C[C@H]2CSC(N)=N[C@@]2(c2cc(NC(=O)c3ccc(C#N)cn3)ccc2F)C1 (relative stereo) [Example 31, (+)-N-[3-((4aR*,6S*,7aS*)-2-amino-6-methoxy-4a,5,6,7-tetrahydro-4H-cyclopenta[d][1,3]thiazin-7a-yl)-4-fluorophenyl]-5-cyanopyridine-2-carboxamide] | 4 nM

Reference: US20100317850A1 (priority 2008, published 2010)
